# Experiment: Study in five subjects with urinary bladder dysfunction symptoms taking Jasmone once a day for 30 days
# Format: in vivo, human
# Description: Five subjects, 4 male and 1 female agreed to participate in the study. Subjects ranged in age from 55-73 with average age being 67. All participants experienced noticeable urinary bladder dysfunction symptoms including frequency, urgency, and reduced urine flow. Subjects took from 50 to 100 micrograms of Jasmone once a day for 30 days. At two weeks approximately ½ of the subjects experienced improved bladder function. […] For example, several subjects noted that before treatment they averaged 2 night time awakenings to urinate which was reduced to 1 or 0 subsequent to taking Jasmone. Other subjects had even greater improvement from an average of 3-4 night awakenings to urinate to 1. […] In addition several male subjects reported increased flow of discharge up to 100%.
smiles,measurement,setting,value
CC/C=C\CC1=C(C)CCC1=O [Jasmone],reduction of daytime bathroom visits,50 to 100 micrograms once a day for 30 days,approximately 50%
same,fraction of subjects who experienced improved bladder function,"at two weeks, 50 to 100 micrograms of Jasmone once a day, five subjects aged 55-73",approximately ½
same,"subject-reported improvements in frequency, urgency, and urine flow","by day thirty, 50 to 100 micrograms once a day","all subjects reported improvements in frequency, urgency, and urine flow"
same,night awakenings to urinate after treatment,"other subjects, average of 3-4 before treatment",1
same,increased flow of discharge,several male subjects,up to 100%
same,"""holding time"" (urgency) after treatment","several patients, from approximately 10 minutes before treatment, i.e. during extended air travel",~60 min

# From US9492403B2, “Method of treating overactive bladder, not due to cancer, by administering at least one jasmonate” (Broady Health Sciences, LLC, priority 2010, dated 2016)
